{
  "source": "patent US20080293759A1",
  "about": "“Method for Treating Cancer Based on the Modulation of Calcineurin” (Centre National De La Recherche, priority 2005, published 2008)",
  "key": {"NFATc1, NFATc2, NFATc3": {"system": "NFATc1, NFATc2, NFATc3", "assay": "Thymocytes ex vivo with CsA or ionomycin, NFAT western blot", "format": "cell-based, mouse", "conditions": "unstimulated thymocytes ex vivo, 1 μg/ml, 60 minutes"}, "NFAT2": {"system": "NFAT2", "assay": "ICN1 leukemic cells in culture with CsA or ionomycin, NFAT2 western blot", "format": "cell-based, mouse", "conditions": "ICN1 leukemic cells maintained in culture for 60 minutes", "protocol": "Phosphorylated and de-phosphorylated isoforms are indicated by coloured arrows.\nLeukemia-derived primary cells and leukemia cell lines (TEL-JAK2, ICN1 and ERP15-14) were maintained in RPMI 1640 supplemented with 10% foetal calf serum, 100 U/ml penicillin, 100 μg/ml streptomycin, 2 mM glutamine (all from Life Technologies) and […] 2-βmercaptoethanol (Sigma).\nTotal cellular extracts prepared from cells obtained directly from diseased animals or control littermates or harvested at the indicated times following culture, were resolved by SDS-PAGE and subjected to immunoblot analysis with the indicated antibody (Ab). The NFAT1(sc-7296), NFAT2 (sc-7294), NFAT4 (sc-8321), STAT5 (C-17; sc-835) antibodies were purchased from Santa Cruz Biotechnology. The phosphotyrosine-STAT5 antibody (05-495) was purchased from Upstate Biotechnology. The pan-NFAT Ab (796) was kindly provided by Dr. Nancy Rice."}},
  "data": [
    {"smiles": "C[C@H](CCC(=O)O)C[C@H](C)C[C@H](C)C(=O)/C=C(\\O)[C@H](C)C[C@H](C)C/C=C/[C@@H](C)[C@@H](O)[C@@H](C)[C@@H](O)C[C@@H]1CC[C@@](C)([C@H]2CC[C@@](C)([C@@H](C)O)O2)O1", "note": "[ionomycin]", "values": [
      {"measurement": "NFATc1, NFATc2, NFATc3 phosphorylation", "setting": "NFATc1, NFATc2, NFATc3", "result": "fully dephosphorylated"},
      {"measurement": "NFAT2 isoform migration (phosphorylation)", "setting": "NFAT2", "result": "indistinguishable from that observed in ICN1 non-treated leukemic cells"}
    ]}
  ]
}
